Each structure is given as a SMILES string.

The subject of this experiment is HGF/MET signaling. Put plainly: BM cell response to HGF after exosome pre-treatment: western blot of phospho-S6 kinase and phospho-ERK. The class given is cell-based, mice. Conditions: 20 nM, before HGF addition. In general terms: A western blot detects proteins with antibodies after separation by electrophoresis.

From the text: Mice were sacrificed and BM was isolated by flushing the femur and tibia with staining media (1% BSA in PBS) using a 25G½″ needle (BD) and further disrupting it by pipeting. Cell suspensions were filtered through 70 μm cell strainers (BD) prior to centrifugation. Red blood cells (RBC) from BM suspensions were lysed using ACK Lysis Buffer (Invitrogen). To enrich for progenitors, lineage positive (Lin^+, i.e., CD5, CD45R, CD19, CD11b, Ly6G/C, 7-4, TER119 positive) BM cells were immunomagnetically depleted using the EasySep® Mouse Hematopoietic Progenitor Cell Enrichment Kit (Stem Cell Technologies) as per manufacturer's instructions. For in vitro BM treatment with exosomes, BM cells were flushed as above and cultured in Stem Span (Stem Cell Technologies) for 16 hours in the presence or absence of 20 μg/ml indicated exosomes. For HGF analysis BM cells were then stimulated with 5 ng/ml HGF (Peprotech) for 4 hours and collected for Western blot analysis in RIPA buffer as indicated below by adding phosphatase inhibitors (1 mM Sodium orthovanadate and 5 mM β-Glycerol phosphate). For MET signaling inhibition, cells were incubated with 20 nM Crizotinib (Selleck Bio) 1 hour before HGF stimulation.
Exosomes or cells were lysed with RIPA buffer containing a complete protease inhibitor tablet (Roche). Lysates were cleared by centrifugation at 14,000×g for 20 min. […]

Take `C[C@@H](Oc1cc(-c2cnn(C3CCNCC3)c2)cnc1N)c1c(Cl)ccc(F)c1Cl` [Crizotinib]: the “Phosphorylation of ERK after F10 exosome treatment” value is “blocked the phosphorylation” and the “Phosphorylation of S6-kinase after F10 exosome treatment” value was “blocked the phosphorylation”.

Source of the values: US9816998B2, “Circulating exosomes as diagnostic/prognostic indicators and therapeutic targets of melanoma and other cancers” (Cornell University, priority 2011, dated 2017).
